Experiment in all cases: DTP human tumour cell line panel, 48 h
Experiment [1] relates to HOP-92 NSCLC.
Experiment [2] has as its system RPMI-8226 leukemia.
Experiment [3] deals with LOX IMVI melanoma.
Experiment [4] concerns SK-OV-3 ovarian.
Experiment [5] concerns SR leukemia.
Experiment [6] relates to OVCAR-4 ovarian.
The subject of experiment [7] is OVCAR-8 ovarian.
In experiment [8] the test system is A549 NSCLC.
Experiment [9] deals with MCF7 breast.

SMILES strings stand for the structures.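 Protocol summary: plate cells (96-well), add compound at 5 concentrations, incubate 48 h, interpolate endpoints linearly. GI50 is the concentration that inhibits growth by half. TGI marks complete inhibition of growth.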

The TGI is the concentration at which net growth stops. For the compound `CCCCC(C)C(OC(=O)CC(CC(=O)O)C(=O)O)C(CC(C)CC(O)CCCCC(O)CC(O)C(C)N)OC(=O)CC(CC(=O)O)C(=O)O` (stereo unspecified), the total growth inhibition concentration (TGI) in experiment [1], in experiment [2], in experiment [3], in experiment [4], in [5] and in experiment [6] was over 100 µM throughout. The total growth inhibition concentration (TGI) in experiment [7] and in [8] was over 100 µM in each case.
`O=C(CCC(=O)Nc1ccc(Cl)c(Cl)c1)CC(=O)c1ccc(F)cc1`: the concentration for total growth inhibition (TGI) in experiment [1], in experiment [3], in experiment [4], in experiment [5], in experiment [6] and in [7] was over 100 µM in each case. For the same compound, in experiment [8], the concentration for total growth inhibition (TGI) was over 100 µM.
As to `O=C(CSc1ncn[nH]1)C[P+](c1ccccc1)(c1ccccc1)c1ccccc1`, the TGI in experiment [1], in experiment [3], in experiment [4], in [6], in experiment [7] and in [8] was over 100 µM each time.
As for `COC(=O)CCC1CCc2c(OC)ccc(OC)c2C1=O` (stereo unspecified), the total growth inhibition concentration (TGI) in [2], in experiment [3], in experiment [4], in experiment [5], in experiment [6] and in experiment [7] was over 100 µM throughout. In addition, the TGI in experiment [8] is over 100 µM.
Take `O=C(CC1(O)C(=O)Nc2ccc(Br)cc21)c1ccc(Cl)cc1Cl` (stereo unspecified): the TGI in [2] was 50.7 µM; in [4], over 100 µM; in experiment [5], 50.7 µM; in [6], over 100 µM; in [7] it was over 100 µM; in [8] it was over 100 µM.
For `CCOc1ccc2c(c1)[n+]([O-])c(-c1ccc(Br)cc1)c(N)[n+]2[O-]`, the concentration for total growth inhibition (TGI) in [2], in experiment [3], in experiment [4], in experiment [6], in experiment [7] and in [8] was over 100 µM throughout.
Turning to `C[N+](C)(C)CC1CCC/C1=N/O` (stereo unspecified), the total growth inhibition concentration (TGI) in experiment [1] was over 100 µM; in experiment [2], 47 µM; in experiment [3] it was 38.4 µM; in [4], over 100 µM; in experiment [5], 54.2 µM; in [6], over 100 µM. The TGI is 4.34 µM in [7] and over 100 µM in experiment [8].
Turning to `COC(=O)C1=C(c2ccc(OC)c(OC)c2)OC(c2cc(OC)c(OC)c(OC)c2)C1` (stereo unspecified), the concentration for total growth inhibition (TGI) in experiment [1] is 65.2 µM; in experiment [2], over 100 µM; in experiment [3] it was over 100 µM; in [4] it was 56.8 µM; in experiment [6], over 100 µM; in [7] it was over 100 µM. For the same compound, the total growth inhibition concentration (TGI) in [8] was over 100 µM.
With `O=C(NCCO)c1ccc([N+](=O)[O-])cc1`, the TGI in [2], in [3], in experiment [4], in experiment [7] and in experiment [8] was over 100 µM each time.
As to `Cc1nnc2c3nnc(C)n3c3ccccc3n12`, the TGI in experiment [1], in [2], in experiment [3], in experiment [4], in [6] and in experiment [7] was over 100 µM each time. In experiment [8], the total growth inhibition concentration (TGI) was over 100 µM.
On to `CS(=O)(=O)NNS(=O)(=O)c1ccccc1`, for which the TGI in experiment [2], in experiment [3], in [5], in experiment [6], in experiment [7] and in experiment [8] was over 100 µM in each case.
In the case of `Cn1c(=O)c(NC(=O)C(Cl)(Cl)Cl)nc2ccccc21`, the TGI in [2], in experiment [3], in [4], in experiment [7] and in [8] was over 100 µM throughout.
On to `O=C(/C=C/c1ccco1)c1ccc(NCc2nc3ccccc3[nH]2)cc1`, for which the concentration for total growth inhibition (TGI) in [1] was found to be 30.6 µM; in [3], 29.8 µM; in experiment [4], 43.3 µM; in experiment [5], 37.7 µM; in experiment [6] it was 56.6 µM; in experiment [7], 47.8 µM.
For the compound `O=C1NC(=O)C(=Nc2cccc3c(=O)[nH][nH]c(=O)c23)C(c2nc3ccccc3s2)C1=O` (stereo unspecified), the total growth inhibition concentration (TGI) in [1], in experiment [4], in [6], in [7] and in experiment [8] was over 100 µM in each case.
Take `S=c1nc(COc2ccc(Cl)cc2Cl)[nH][nH]1`: the total growth inhibition concentration (TGI) in [1], in [2], in experiment [3], in [5], in [6] and in experiment [7] was over 100 µM throughout. This compound gave a TGI in [8] of over 100 µM.
The GI50 is the concentration giving 50% growth inhibition. On to `COc1cc(-c2cc(-c3ccc(Nc4ccnc5cc(Cl)ccc45)cc3)nc(N3CCOCC3)n2)cc(OC)c1OC`, for which the GI50 was 1.85 µM in experiment [1]; 1.57 µM in experiment [2]; 14.9 µM in experiment [4]; 0.468 µM in [5]; 1.89 µM in experiment [6]; 2.12 µM in experiment [7]. The GI50 was 1.76 µM in experiment [8] and 0.755 µM in experiment [9]. Further, the TGI is 4.81 µM in experiment [1]; 5.02 µM in [2]; 31.7 µM in [4]; 2.41 µM in experiment [5]; 4.3 µM in experiment [6]; 4.7 µM in experiment [7]. Moreover, the TGI in experiment [8] was found to be 3.47 µM; in [9] it was 3.26 µM.
`CC(=O)NC1C(OCc2ccccc2)OC(CO)C(O)C1OC(C)C(=O)N[C@@H](C)C(=O)N[C@H](CCC(=O)OCCNc1c2ccccc2nc2cccc([N+](=O)[O-])c12)C(N)=O` (stereo partly specified): the TGI was 0.00616 µM in experiment [1]; over 0.1 µM in experiment [2]; 0.0288 µM in experiment [4]; over 0.1 µM in experiment [5]; 0.0116 µM in [6]; 0.028 µM in [7]. In [8], this compound yielded a total growth inhibition concentration (TGI) of 0.0173 µM.
For `CN(C)c1nnnn1-c1c(N)n(C)c(=O)n(C)c1=O`, the TGI in experiment [1], in experiment [2], in experiment [3], in [4], in experiment [6] and in [7] was over 100 µM each time. Besides, the concentration for total growth inhibition (TGI) in [8] is over 100 µM.

The values above are taken from PubChem BioAssay (NCI).
